In experiment [1] the test system is apomorphine-induced vomiting. Put plainly: Inhibitory effect on apomorphine-induced vomiting. It is filed as in vivo, dogs (Beagle). To be noted: Canis lupus familiaris, po, 1 h, 2 h before s.c. apomorphine hydrochloride 0.3 mg/kg, emetic episodes 1 h; for inhibition in vivo at 1 mg/kg: 1.0 mg/kg oral. On the procedure: A group of 3-4 dogs (Beagle, 8-15 kg) was used for examining inhibitory effects of the test compounds on apomorphine-induced vomiting according to the method of Chen and Ensor [cf. J. Pharmacol. Exp. Ther., 98, 245-250 (1950)]. Test compounds, dissolved or suspended in a 0.5% tragacanth solution were orally administered two hours before the subcutaneous administration of apomorphine hydrochloride (0.3 mg/kg). Then, the emetic episodes were counted for one hour. The emetic episodes of the compound-treated group were compared with those of the corresponding control (non-dosed) group, and the percent inhibition was calculated.

The next experiment deals with exploratory activity. Put plainly: Inhibitory effect on exploratory activity. The class given is in vivo, male mice (Std-ddy strain). As to conditions: Mus musculus; oral, 2 h before test; 3 min counting; Probit; read-out: ID50 (inhibition of exploratory activity). An excerpt: A group of 5 male mice (Std-ddy strain, 20-25 g) was used. Two hours after oral administration of the test compounds in the form of 0.5% tragacanth solution or suspension, mice were placed individually in a test box (23×35×30 cm) on Animex activity meter (Farad Co.). Immediately thereafter, activity counting was started and lasted for three minutes. The mean counts of the compound-treated group were compared with those of the corresponding control (non-dosed) group, and the percent inhibition was calculated and the 50% inhibitory dose (ID50) was obtained according to the method of Probit.

For a further experiment, the system named is gastric emptying. Put plainly: Gastric emptying enhancing activity. As to conditions: 60 min before test meal, increase from control. It is filed as in vivo, Male Wistar rats. On the procedure:
The test was carried out according to the method of Scarpignato et al. [cf. Arch. Int. Pharmacodyn., 246, 286-294 (1980)]. Male Wistar rats, weighing 130-150 g, were fasted for 18 hours before experimentation, and 1.5 ml of a test meal (phenol red 0.05% in a 1.5% aqueous methylcellulose solution) was orally given. Fifteen minutes after administration of the meal the stomach was removed and the amount of phenol red remaining in the stomach was measured. The test compounds, dissolved or suspended in a 0.5% tragacanth solution, were orally administered 60 minutes before administration of the test meal. The rate of gastric emptying was calculated according to the amount of phenol red remaining in the stomach, and the activity of the test compounds was expressed in terms of increase in the emptying rate from the control.

The subject of experiment [2] is gastrointestinal motility. Put plainly: Gastrointestinal motility improving activity (overall statement). As to conditions: in vivo.
Experiment [3] concerns gastrointestinal motility. Kind of experiment: Effect on gastrointestinal motility in conscious dog. As to conditions: 3 and 10 mg/kg intragastric; fed state, conscious dogs. It is filed as in vivo, beagle dogs. On the procedure: Four healthy beagle dogs per group of both sexes weighing 10 to 12 kg were anesthetized with an i.v. injection of pentobarbital sodium (Nembutal, 30 mg/kg b. wt.), and the abdominal cavity was opened under aseptic conditions. Extraluminal force transducers were sutured onto the seromuscular layer of the gastric antrum, 3 cm proximal to the pyloric ring, the duodenum, the jejunum, the […] terminal ileum in a manner to measure circular muscle contraction, following the method of Ito et al., [cf. Gastrointerol. Japan. 12, 275-283 (1977).] For intragastric (i.g.) administration of drugs, a Silastic tube (Fr. size 6.5) was inserted into the lumen of the gastric body, and the tube was fixed onto the adjacent serosa. The lead wires of these transducers and gastric tube were taken out of abdominal cavity and then brought out through a skin incision made between the scapulae. The outer ends of the lead wires were sutured onto the skin adjacent to the skin incision. After the operation, jacket protector was placed on the dog to protect the lead wires and the Silastic tube. The dogs were housed in individual experimental cages and given dog food at 10 a.m., and water was given freely. Test compounds at 3 and 10 mg/kg were suspended in 0.5% tragacanth solution and given i.g. through the indwelling Silastic tube.

Experiment [4] relates to gastric emptying delayed by morphine. Kind of experiment: Effect on gastric emptying delayed by morphine. It is filed as in vivo, Male Wistar rats. The arrangement: key to Effect on gastric emptying delayed by morphine: +: slightly to moderately improved; ++: markedly improved; ±: no improvement. As to conditions: for Effect on gastric emptying delayed by morphine: morphine 3 mg/kg s.c. On the procedure:
(§1) The test was carried out according to the method of Scarpignato et al. [c f. Arch. int. Pharmacodyn., 246, 286-294 (1980)]. Male Wistar rats, weighing 130-150 g, were fasted for 18 hours before experimentation, and 1.5 ml of a test meal (phenol red 0.05% in a 1.5% aqueous methylcellulose solution) was orally given. Fifteen minutes after administration of the meal the stomach was removed and the amount of phenol red remaining in the stomach was measured. The test compounds, 10, 30 or 100 mg/kg, each dissolved or suspended in a 0.5% tragacanth solution, were orally administrated 60 minutes before administration of the test meal. Gastric emptying was delayed by subcutaneous administration of cholesystokinin 3 μg/kg or morphine 3 mg/kg 5 minutes before the administration of phenol red. The number of animals used was 5 to 10.

The subject of experiment [5] is gastric emptying delayed by cholecystokinin. Kind of experiment: Effect on gastric emptying delayed by cholecystokinin. As to conditions: for Effect on gastric emptying delayed by cholecystokinin: cholecystokinin 3 μg/kg s.c. The class given is in vivo, Male Wistar rats. Also noted: key to Effect on gastric emptying delayed by cholecystokinin: +: slightly to moderately improved; ++: markedly improved; ±: no improvement. On the procedure:
as §1

Where a name gives a salt, the structure may show the parent alone.

For orientation: inhibition in vivo means the drop in the measured response relative to a control, in per cent.

Molecule `CCN1CCCCC(NC(=O)c2cc3nnn(C)c3cc2OC)C1` (stereo not drawn) [Compound 1, N-(1-ethyl-1H-hexahydroazepin-3-yl)-6-methoxy-1-methyl-1H-benzotriazole-5-carboxamide] came in with an inhibition in vivo at 1 mg/kg in experiment [1] of 77%. Further, the ED50 in the experiment with exploratory activity is over 100 mg/kg.
`CCN1CCCC[C@H](NC(=O)c2cc3nnn(C)c3cc2OC)C1` [Compound 3, (S)-N-(1-ethyl-1H-hexahydroazepin-3-yl)-6-methoxy-1-methyl-1H-benzotriazole-5-carboxamide]: testing at 1 mg/kg in experiment [1] gave an inhibition in vivo of 36%.
Regarding `CCN1CCCCC(NC(=O)c2cc3nnn(CC)c3cc2OC)C1` (stereo not drawn) [Compound 4, 1-ethyl-N-(1-ethyl-1H-hexahydroazepin-3-yl)-6-methoxy-1H-benzotriazole-5-carboxamide], in experiment [1], the inhibition in vivo at 1 mg/kg was 89%. Moreover, in the experiment on gastric emptying (3 mg/kg oral), the “Increase in gastric emptying rate” value was 31%. For the same molecule, the ED50 with exploratory activity is over 100 mg/kg.
Molecule `CCN1CCCC[C@@H](NC(=O)c2cc3nnn(CC)c3cc2OC)C1` [Compound 5, (R)-1-ethyl-N-(1-ethyl-1H-hexahydroazepin-3-yl)-6-methoxy-1H-benzotriazole-5-carboxamide] showed an inhibition in vivo at 1 mg/kg in experiment [1] of 100%. For the same molecule, in the experiment with gastric emptying (3 mg/kg oral), the “Increase in gastric emptying rate” value came to 35%.
As to `CCN1CCCCC(NC(=O)c2cc3nn[nH]c3cc2OC)C1` (stereo not drawn) [Compound 6, N-(1-ethyl-1H-hexahydroazepin-3-yl)-6-methoxy-1H-benzotriazole-5-carboxamide], in experiment [1] (0.3 mg/kg oral), the inhibition in vivo at 0.3 mg/kg amounted to 71%. For the same molecule, 1 mg/kg produced 100% inhibition in vivo in experiment [1]. The “Increase in gastric emptying rate” value with gastric emptying (3 mg/kg oral) worked out at 28%. Besides, the ED50 in the experiment with exploratory activity was over 100 mg/kg.
Regarding `CCN1CCCC[C@@H](NC(=O)c2cc3nn[nH]c3cc2OC)C1` [Compound 7a, (R)-N-(1-ethyl-1H-hexahydroazepin-3-yl)-6-methoxy-1H-benzotriazole-5-carboxamide], in experiment [1] (0.1 mg/kg oral), 0.1 mg/kg produced 73% inhibition in vivo. For the same molecule, the inhibition in vivo at 1 mg/kg in experiment [1] was 100%. Besides, the “Gastrointestinal motility improving activity (in words)” value in experiment [2] was “especially excellent gastrointestinal motility improving activity”. Further, the ED50 in the experiment with exploratory activity was over 100 mg/kg.
For `CCN1CCCC[C@H](NC(=O)c2cc3nn[nH]c3cc2OC)C1` [Compound 8b, (S)-N-(1-ethyl-1H-hexahydroazepin-3-yl)-6-methoxy-1H-benzotriazole-5-carboxamide.3/2 fumarate], the inhibition in vivo at 1 mg/kg in experiment [1] stood at 19%.
As to `CCN1CCCCCC(NC(=O)c2cc3nn[nH]c3cc2OC)C1` (stereo not drawn) [Compound 9, N-(1-ethyl-1H-heptahydroazocin-3-yl)-6-methoxy-1H-benzotriazole-5-carboxamide], in experiment [1], at 1 mg/kg the inhibition in vivo was 100%.
As to `CCN1CCCCCCC(NC(=O)c2cc3nn[nH]c3cc2OC)C1` (stereo not drawn) [Compound 10, N-(1-ethyl-1H-octahydroazonin-3-yl)-6-methoxy-1H-benzotriazole-5-carboxamide], the inhibition in vivo at 1 mg/kg in experiment [1] is 100%. Besides, the “Increase in gastric emptying rate” value with gastric emptying (3 mg/kg oral) is listed as 46%.
For `COc1cc2[nH]nnc2cc1C(=O)NC1CCCCN(CC2CC2)C1` (stereo not drawn) [Compound 11, N-(1-cyclopropylmethyl-1H-hexahydroazepin-3-yl)-6-methoxy-1H-benzotriazole-5-carboxamide] the same measures were 92% and 34%.
Molecule `COc1cc2[nH]nnc2cc1C(=O)N[C@@H]1CCCCN(CC2CC2)C1` [Compound 12, (R)-N-(1-cyclopropylmethyl-1H-hexahydroazepin-3-yl)-6-methoxy-1H-benzotriazole-5-carboxamide] yielded an inhibition in vivo at 1 mg/kg in experiment [1] of 92%.
Turning to `COc1cc2c(cc1C(=O)N[C@@H]1CCCCN(CC3CC3)C1)nnn2C` [Compound 13, (R)-N-(1-cyclopropylmethyl-1H-hexahydroazepin-3-yl)-6-methoxy-1-methyl-1H-benzotriazole-5-carboxamide], in experiment [1], the inhibition in vivo at 1 mg/kg amounted to 73%.
`CCN1CCCCCC(NC(=O)c2cc3nnn(C)c3cc2OC)C1` (stereo not drawn) [Compound 14, N-(1-ethyl-1H-heptahydroazocin-3-yl)-6-methoxy-1-methyl-1H-benzotriazole-5-carboxamide] gave an inhibition in vivo at 1 mg/kg in experiment [1] of 100%. In the experiment on gastric emptying (3 mg/kg oral), the “Increase in gastric emptying rate” value was found to be 32%.
In the case of `CCN1CCCCCCC(NC(=O)c2cc3nnn(C)c3cc2OC)C1` (stereo not drawn) [Compound 15, N-(1-ethyl-1H-octahydroazonin-3-yl)-6-methoxy-1-methyl-1H-benzotriazole-5-carboxamide], at 1 mg/kg the inhibition in vivo in experiment [1] was 71%.
As to `CCN(CC)CCNC(=O)c1cc(Cl)c(N)cc1OC.Cl.O` [Compound A, 4-Amino-5-chloro-N-[2-(diethylamino)ethyl]-2-methoxybenzamide hydrochloride monohydrate, reference compound], the Interdigestive migrating like-contractions entry in experiment [3] was “did not cause interdigestive migrating contractions at all”. For the same molecule, the inhibition in vivo at 0.5 mg/kg in experiment [1] (0.5 mg/kg oral) amounted to 56%. Testing at 1 mg/kg in experiment [1] gave an inhibition in vivo of 86%. Besides, the entries for the “Increase in gastric emptying rate” value in the experiment with gastric emptying (2 mg/kg oral), with gastric emptying (5 mg/kg oral) and in the experiment with gastric emptying (10 mg/kg oral) were 21%, 26% and 31%, respectively. Further, the “Effect on gastric emptying delayed by morphine” value in experiment [4] (10 mg/kg oral), in experiment [4] (30 mg/kg oral) and in experiment [4] (100 mg/kg oral) was “±” each time. Besides, in experiment [4] (10, 30 or 100 mg/kg), the “Gastric emptying delayed by morphine (in words)” value was “did not show an improving activity against the delay in gastric emptying induced by cholecystokinin or morphine”. Besides, the “Effect on gastric emptying delayed by cholecystokinin” value in experiment [5] (10 mg/kg oral), in experiment [5] (30 mg/kg oral) and in experiment [5] (100 mg/kg oral) was “±” in each case. For the same molecule, in experiment [5] (compound 2: 30 or 100 mg/kg, 7b and Compound A: 10, 30 or 100 mg/kg), the “Gastric emptying delayed by cholecystokinin (in words)” value is reported as “did not show an improving activity against the delay in gastric emptying induced by cholecystokinin or morphine”. In addition, the ED50 in the experiment with exploratory activity was found to be 22.4 mg/kg.
